Measurements published in patent US20240415804A1, “METHOD OF TREATING PANCREATIC CANCER” (University of South Florida, priority 2022, published 2024).

What was measured:
Settings in all cases: miR-155 inhibitor 100 nM, 24 h, vs scrambled miRNA
miR-155 [1] = experiment: miR-155 gene expression by RT-qPCR in UN-KC-6141 cells; assay type: cell-based, mouse
Protocol: (§1) MiR-155 is known to be overexpressed in different cancers, including PC^21, 23. The inventors first assessed whether apigenin could modulate the expression of miR-155 in PC cells. Murine PC cell lines Panc02 and UN-KC-6141 as well as the human PC cell line MiaPaCa-2 were treated with API (40 μM) or DMSO vehicle for 24 h and the expression of miR-155 was examined using RT-qPCR assay. […] Since API is known to inhibit the growth of cancer cells, including PC cells^39-43, 47-50, the same PC cell lines were treated with API (40 μM) or DMSO (vehicle) for 24 h and examined cell viability using MTT assay. […] Moreover, Panc02 and UN-KC-6141 cells were then treated with API at a dose dependent concentration (10, 20, 30, 40, 50 μM) and detected apoptosis using flow cytometry (Annexin V and PI).
(§2) miR-155 is implicated in the development of pancreatic tumors from pancreatic intraepithelial neoplasia (PanIN) lesions, and is overexpressed in PC^23. The inventors examined whether the depletion of miR-155 modulated PC viability. Murine and human PC cell lines were transfected with miR-155 inhibitor (i.e., MMU-MIR-155-5P/HSA-MIR-155-5P) and scrambled miRNA at a concentration of 100 nM for 24 h and cell viability determined using an MTT assay. The expression of miR-155 was examined using an RT-qPCR assay as well. […]

miR-155 [2] = experiment: miR-155 gene expression by RT-qPCR in Panc02 cells; assay type: cell-based, mouse
Protocol: as §1, §2

Panc02 cells = experiment: MTT cell viability assay, Panc02; assay type: cell-based, mouse
Protocol: (§3) The methyl thiazol tetrazolium (MTT) assay was performed as described previously^58. Briefly, MiaPaCa-2, Panc02 and UN-KC-6141 cells were seeded in 96-well plates at a density of 3000 cells/well and allowed to attach overnight. PC cells were then treated with API (40 μM) or DMSO (1%) as vehicle control for 24 h at 37° C. in 5% CO2 incubator. After 24 h, media was replaced with 20 μL of MTT (1 mg/mL) (Sigma-Aldrich) and incubated for 3 h at 37° C. in 5% CO2. MTT was replaced with DMSO, and absorbance was read at 570 nm.
(§4) MiaPaCa-2, Panc02 and UN-KC-6141 cells (2×10^5) were grown in 2 mL of growth medium in a 6-well tissue culture plate for 18-24 h until 60-80% confluency. The following solutions were prepared: Solution A) For each transfection, diluted 1 μL of miRNA-155 inhibitors (1 μM) (Table 2) or scrambled negative control miRNA (1 μM) (Qiagen, Germantown, MD, USA) into 50 μL Opti-MEM Transfection Medium (Invitrogen, Waltham, MA, USA). Solution B) For each transfection, diluted 3 μL of Hi-Perfect Transfection Reagent into 50 μL Opti-MEM Transfection Medium. Solution A was added directly to Solution B, mixed gently and the mixture incubated for 10-15 min at room temperature. […]

UN-KC-6141 cells = experiment: MTT cell viability assay, UN-KC-6141; assay type: cell-based, mouse
Protocol: as §3, §4

MiaPaCa-2 cells = experiment: MTT cell viability assay, MiaPaCa-2; assay type: cell-based, human
Protocol: as §3, §4

miR-155 [3] = experiment: miR-155 gene expression by RT-qPCR in MiaPaCa-2 cells; assay type: cell-based, human
Protocol: as §1, §2

Substance	miR-155 gene expression (miR-155 [1])	miR-155 gene expression (miR-155 [2])	cell viability (MTT) (Panc02 cells)	cell viability (MTT) (UN-KC-6141 cells)	cell viability (MTT) (MiaPaCa-2 cells)	miR-155 gene expression (miR-155 [3])
MMU-MIR-155-5P: Qiagen miRCURY LNA miRNA inhibitor (mouse), sequence 5′-3′ CCCCTATCACAATTACCATT, SEQ ID NO: 1 (CCCCTATCACAATTAGCATT; LNA-modified commercial inhibitor, pattern not given here; listed 3' to 5'; listed as Mus musculus) [reference compound]	significantly depleted	significantly depleted	suppressed	suppressed	–	–
HSA-MIR-155-5P: Qiagen miRCURY LNA miRNA inhibitor (human), sequence 5′-3′ CCTATCACGATTAGCATT, SEQ ID NO: 2 (LNA-modified commercial inhibitor, pattern not given here; listed 3' to 5'; listed as Homo sapiens) [reference compound]	–	–	–	–	suppressed	significantly depleted
